Measurements as given in US7759087B1, “Method of indefinite culture of hepatitis C virus” (priority 2005, dated 2010).

Experiments:
[1] = system: HCV replicon (wild-type NS5A) in Huh.8 cells; assay: Western blot for NS5A expression in Huh.8 replicon cells; assay type: cell-based, hepatitis C virus; conditions: 4 days, 1 μM 2CMA, 10 μg/ml aphidicolin
Method: Antibodies and western blots. An anti-NS5A monoclonal antibody was purchased from Virogen (Boston, Mass.) and an anti-Ku86 monoclonal antibody from Sigma. A monoclonal antibody against GFP was obtained from Clontech/BD Biosciences. To detect membrane-associated HCV proteins, we directly lysed the replicon cells in SDS PAGE sample buffer. We used 2×10^5 cells per 160 μl of SDS PAGE sample buffer for all our western blotting experiments. Blotting and detection were all performed according to standard procedures. For detection of Ku86 signal, the membrane was first stripped of the NS5A signal by incubation in stripping buffer (100 mM 2mercaptoethanol, 2% SDS, 62.5 mM Tris-HCl, pH 6.7) for 30 minutes at 50° C.
Additional experiments with a replicon cell line containing a wild type HCV sequence. […] Huh.8 is replicon cell line that contains the wild-type sequence of NS5A (1). Huh.8 cells were cultured under various conditions for 4 days before being analyzed by western blot for NS5A expression. […] Serum starvation actually appeared to have increased NS5A expression, as it did with the GS4 cells (FIG. 8 and data not shown).

HCV RNA in GS4 cells = assay: Northern analysis of HCV RNA in GS4 cells; assay type: cell-based, hepatitis C virus; conditions: 3 days, 1 μM 2CMA, 10 μg/ml aphidicolin
Method: RNA extraction and northern blots. Total RNA was extracted with TRIzol reagent (Invitrogen, San Diego, Calif.). Equal amounts of RNA (10 μg per sample) were loaded onto formaldehyde-containing agarose gels for electrophoresis. The transfer of RNA onto a nitrocellulose membrane, random labeling of a radioactive probe, and hybridization were all performed according to standard molecular-biology protocols. The probe for detecting HCV RNA is a cDNA fragment that corresponds to nucleotides 8024 to 9563 of HCV 1 b. The exposure and detection of the radioactive signal was done with a Storm 860 phosphor-imaging system (Amersham/GE Healthcare).
To validate our results at the viral RNA level, we repeated the inhibition and rescue experiments and directly examined HCV RNA by northern blotting. GS4 cells were treated with various inhibitors/agents for 3 days before the total RNAs were subjected to northern analysis for HCV RNA.

[2] = system: HCV replicon (NS5A-GFP) in GS4 cells; assay: GFP-based flow cytometry assay for HCV replication (NS5A-GFP expression in GS4 replicon cells); assay type: cell-based, hepatitis C virus; conditions: for mean intensity of the GFP and percentage of GFP-positive cells: 100 units/ml IFN, 1 μM 2CMA, 2 μg/ml Cs A
Method: (§1) Flow cytometry and cell cycle analysis. Cells were routinely fixed in 2% paraformaldehyde before flow cytometry analysis, which was performed with a FACSCanto flow cytometer (BD Biosciences). Live cell sorting was performed under sterile conditions with a FACSAria flow cytometer (BD Biosciences). The approximately 5% of cells (2×10^7 cells total) with the strongest GFP signal were sorted back for expansion at each round of live-cell sorting. For cell-cycle analysis, 1×10^6 cells were stained with 50 μg/ml propidium iodide in the presence of 200 μg/ml RNase A and 0.1% Triton X-100 for 30 minutes before being subjected to FACS analysis.
A novel GFP-based flow cytometry assay for HCV replication. Recently, a modified HCV replicon with the eGFP gene inserted into the coding region of NS5A has been generated for study of the subcellular localization of the HCV replication complex (16). […] When we subjected I/5A-GFP cells to flow-cytometry analysis, we found the GFP signal of the majority (˜70%) of the cells to be indistinguishable from that of Clone B, a replicon cell line without GFP but containing the same S2204I mutation in the NS5A gene (1) (FIG. 1). To obtain a cell line with minimal FACS-profile overlap with the GFP-negative replicon cells, we then performed consecutive rounds of cell sorting on I/5A-GFP-6 cells in which the cells with the strongest GFP were recovered. A population with no greater than 15% GFP-negative cells was obtained after four rounds of sorting and was used for the present study. We designated these cells GS4 (FIG. 1).
The GFP signal of these cells was then analyzed by flow cytometry 4 days after treatment with increasing amounts of inhibitors, including Interferon-α (IFN-α), 2′-Cmethyl-adenosine (2CMA), and Cyclosporin A (Cs A). […] The […] (0.25 μM for 2CMA, 0.5 μg/ml for CsA, and 10-25 units/ml for IFN-α) obtained with this assay closely resemble results from previous studies where HCV RNA level was measured (2, 6, 19, 26).

GS4 cells = assay: Cell-cycle analysis by propidium iodide staining; assay type: cell-based; conditions: 4 days, 10 μg/ml shown
Method: as §1
Failure of growth arrest to inhibit replicon expression prompted us to examine the effect of cell-cycle perturbation on replicon expression. Propidium iodide (PI) staining of the cells permitted acquisition of dual fluorescence FACS profiles showing the cell-cycle distribution of GFP-positive and -negative cells. We found no correlation between positive GFP signal and any of the cell-cycle stages in the cycling cells (FIG. 12, no treatment). Incubation at 39° C. inhibited NS5A-GFP expression without any effect on cell-cycle profile. […] Even though confluency also affected cell cycle to a certain degree, its effect on cell-cycle progress was far less dramatic than that of aphidicolin.

[3] = system: full-length HCV RNA based on the genotype 1b HCV-N; conditions: reference 22; cited from earlier work
HCV replicon = conditions: reference 17; cited from earlier work
[4] = system: HCV replicon (NS5A-GFP) in GS4 cells; assay: Recovery of NS5A-GFP expression at 37° C. after 39° C. treatment of GS4 cells; assay type: cell-based, hepatitis C virus; conditions: 4 days recovery at 37° C.; 100 units/ml IFN-a, 10 μg/ml aphidicolin
Method: To eliminate the possibility that these growth-arrest treatments somehow stabilize the GFP and maintain it throughout the treatment, we took advantage of our finding that 39° C. treatment results in reversible inhibition of HCV replication in our assay. We first eliminated the GFP signal from GS4 cells by incubating them at 39° C. for 4 days and then transferred the cells back to 37° C. so that HCV replication could recover. […] We tested aphidicolin and serum starvation using this assay along with IFN-α.

Row | Compound | NS5A expression (western blot) [1] | HCV RNA signal (northern blotting) (HCV RNA in GS4 cells) | mean intensity of the GFP and percentage of GFP-positive cells ([2]; GS4 cells, 4 days) | IC50 ([2]; Hepatitis C virus, 96 h, GS4 cells, 4 days treatment, flow cytometry, read-out: 1050 (NS5A-GFP expression)) | cell-cycle arrest (GS4 cells) | abundance of HCV RNA or protein [3] | effect on HCV replicon (HCV replicon) | recovery of NS5A-GFP expression after 39° C. treatment [4] | effect on NS5A-GFP expression ([2]; 5 to 20 μg/ml, GS4 cells, 4 days) | effect on HCV RNA replication or protein expression ([2]; our system, data not shown)
1 | C[C@@]1(O)[C@H](O)[C@@H](CO)O[C@H]1n1cnc2c(N)ncnc21 [2CMA, 2′-C-methyl-adenosine] | effectively eliminated any NS5A expression | effectively eliminated HCV RNA signal | effectively lowered | 250 nM |  |  |  |  |  | 
2 | C[C@@]1(CO)[C@H](O)CC[C@@]2(C)[C@H]1CC[C@H]1C[C@@H]3C[C@@]12CC[C@]3(O)CO [aphidicolin] | did not inhibit HCV expression | only had a minimal effect |  |  | effectively arrested cell cycle at the G1/S transition | had no effect | inhibitory effect | did not prevent the resumption of HCV replication | failed to affect NS5A-GFP expression significantly | 
3 | Interferon-α [IFN-α] |  |  | effectively lowered |  |  |  |  | efficiently blocked the recovery of the NS5A-GFP expression |  | 
4 | TGF-β |  |  |  |  |  |  |  |  |  | only a marginal effect
